Measured values published in doi:10.1101/365775v1 (biorxiv, 2018).

Target: T1, mSec18 (monomeric Sec18; Sec18His8) (Saccharomyces cerevisiae, UniProt P18759)
T1 sequence (P18759 1-758): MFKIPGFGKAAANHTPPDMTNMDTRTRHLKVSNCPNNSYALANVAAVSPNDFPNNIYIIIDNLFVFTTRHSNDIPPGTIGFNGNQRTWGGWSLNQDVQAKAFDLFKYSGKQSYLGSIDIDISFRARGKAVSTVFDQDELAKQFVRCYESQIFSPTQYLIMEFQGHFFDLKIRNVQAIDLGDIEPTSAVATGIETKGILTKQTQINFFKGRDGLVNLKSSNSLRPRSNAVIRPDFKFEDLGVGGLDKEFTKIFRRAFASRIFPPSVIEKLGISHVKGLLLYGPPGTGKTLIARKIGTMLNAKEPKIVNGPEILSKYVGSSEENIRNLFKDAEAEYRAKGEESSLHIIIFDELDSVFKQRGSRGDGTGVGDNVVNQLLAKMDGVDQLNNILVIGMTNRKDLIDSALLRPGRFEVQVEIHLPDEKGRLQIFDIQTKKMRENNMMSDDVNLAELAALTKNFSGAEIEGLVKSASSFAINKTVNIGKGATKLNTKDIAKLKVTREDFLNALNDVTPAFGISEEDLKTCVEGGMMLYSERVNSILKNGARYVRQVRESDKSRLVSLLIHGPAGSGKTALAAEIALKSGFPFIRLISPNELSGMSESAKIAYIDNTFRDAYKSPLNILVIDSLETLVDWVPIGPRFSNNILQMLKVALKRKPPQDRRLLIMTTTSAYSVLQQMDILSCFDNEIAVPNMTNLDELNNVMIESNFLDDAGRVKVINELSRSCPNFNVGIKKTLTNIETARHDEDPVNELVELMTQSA
Test: microscale thermophoresis
Type: binding

**Q.** Nc1ncnc2c1ncn2[C@@H]1O[C@H](COP(=O)(O)OP(=O)(O)OP(=O)(O)O)[C@@H](O)[C@H]1O [ATP] was tested. Which Kd did it give?
**A.** The Kd was 56 ± 16 µM.
